The source of these data is patent US12514894B2, “Traditional Chinese medicine composition for preventing and treating diabetes, traditional Chinese medicine preparation, and use thereof” (ZHEJIANG CHINESE MEDICAL UNIVERSITY, priority 2022, dated 2026).

In series [1] the test system is mouse bone marrow polychromatic erythrocytes (PCEs). The conditions noted are these: CP 0.04 g/(kg · BW). The procedure: The test solutions of each dose group were prepared by diluting 2.5, 5.0, and 10.0 mL of TCM decoction to 20 mL with purified water, respectively (each equivalent to 25, 50, and 100 times the recommended daily intake of an adult). For a positive control, 0.04 g of cyclophosphamide (CP) was diluted with purified water to 20 mL for later use. Fifty ICR mice weighing 25.1-30.0 g were randomly divided into three sample dose groups of 2.5, 5.0 and 10.0 mL/(kg·BW), a solvent control group (purified water) and a positive control group [CP 0.04 g/(kg·BW)] by gender and body weight, with 10 mice in each group, half male and half female. The gavage capacity was 20 mL/(kg·BW) each time, and the femoral bone marrow was suspended in calf serum for direct smear, methanol fixation, and Giemsa staining 6 h after the second gastric gavage. […] The number of normochromatic erythrocytes (NCEs) observed was counted while 200 PCEs per animal was observed. The ratio of both (PCE/NCE) was calculated. The results are as follows (see Table 1).

Another series concerns mouse sperm. The conditions noted are these: CP 0.04 g/(kg · BW), 5 days gavage, day 35. Here is the method: The dose planning and preparation methods of the positive control and samples are shown in the in vivo micronucleus assay in mouse bone marrow. Twenty-five healthy male ICR mice weighing 25.3-29.8 g were randomly divided into three sample dose groups of 2.5, 5.0 and 10.0 mL/(kg·BW), a solvent control group (purified water), and a positive control group [CP 0.04 g/(kg-BW)] by body weight, with five mice in each group. Animals in each group were given gastric gavage once a day for five consecutive days, and the gavage capacity was 20 mL/(kg·BW). At 35 days after the first administration of the test solution, the mice were sacrificed, bilateral epididymides were removed, and the epididymides were cut longitudinally with ophthalmic scissors, filtered, smeared, dried, fixed with methanol, stained with 2% (m:V) eosin, and microscopically observed.

For series [2], the system named is SD rats with diabetes of dampness-heat pattern. Kind of series: Lowering of blood glucose in rats with type 2 diabetes. It is filed as in vivo, rat. The text has this:
Dose Planning: Low-, medium- and high-dose groups were designed in this experiment: 10 g (crude drug)/kg, 20 g (crude drug)/kg, and 40 g (crude drug)/kg. The dose groups were given by gastric gavage for 30 consecutive days, and the control group was given an equal quantity of normal saline.
SD rats with diabetes of dampness-heat pattern were modeled with reference to the 2014 edition of the Ideas and Methods of Clinical-mimetic Research on Integrated Animal Models of Disease and Syndrome. The specific method was as follows: Sixty specific pathogen-free (SPF) grade male Sprague-Dawley (SD) rats weighing 160-180 g were selected, 10 male SD rats were assigned to a normal control group, and the rest 50 ones were fasted but not deprived of water for 16-18 h (21:00 PM to 14:00 PM the next day); STZ was prepared into a 1.0% solution with […] citric acid buffer (pH=4.2, 4° C.), and the rats were fed with high-sugar and high-fat diet on Day 3 after tail vein injection of 10 mg kg^−1 STZ; the type 2 diabetes model was replicated by continuous high-sugar and high-fat feeding for 6-8 weeks (impaired glucose tolerance was deemed as successful modeling), and the normal control group was fed with normal diet. Later, after all rats were fed with normal animal feed and normally drank water for one week, they fasted but not deprived of water for 12 h; the tails of the rats were disinfected with alcohol, and the fasting plasma glucose of the rats was measured by tail vein blood sampling. […] After the successful modeling, the rats were given normal animal feed and access to water ad libitum for one week, so as to detect the stability of the model.
After the successful modeling, 50 rats were divided into a model control group, a positive control group, a low-dose TCM decoction group, a medium-dose TCM decoction group, and a high-dose TCM decoction group. Ten rats in the blank control group were given access to ordinary animal feed and water ad libitum, and an equal volume of normal saline was administered daily by gastric gavage. Ten rats in the model control group were given access to ordinary animal feed and water ad libitum, and an equal volume of normal saline was administered daily by gastric gavage. Ten rats in the positive control group were given access to ordinary animal feed and water ad libitum, and 0.25 g/kg metformin was administered daily by gastric gavage. Ten rats in the low-dose TCM decoction group were given access to ordinary animal feed and water ad libitum, and 10 g (crude drug)/kg TCM decoction was administered daily by gastric gavage. Ten rats in the medium-dose TCM decoction group were given access to ordinary animal feed and water ad libitum, and 20 g (crude drug)/kg TCM decoction was administered daily by gastric gavage. Ten rats in the high-dose TCM decoction group were given access to ordinary animal feed and water ad libitum, and 40 g (crude drug)/kg TCM decoction was administered daily by gastric gavage. All rats were fed for a total of 30 days. Rat body weight, fasting plasma glucose, and insulin level were measured before and after SD rat modeling and after gastric gavage.

Series [3] relates to standard tester strains TA97a, TA98, TA100, and TA102. The experiment in a line: Ames test, conclusion over the four tester strains. It is filed as cell-based, Salmonella typhimurium. The note with it: each of four strains, regardless of addition of S9, two duplicate tests. Here is the method: (§1) The TCM decoction (20 mL) was sterilized at 121° C. for 20 min as a test solution. During the test, 0.1 mL of the test solution was added to each dish in the highest dose group, namely 5 μL/dish, and there was no contamination or inhibition during the pre-test. In the formal test, the test solution in the highest dose group was serially diluted 5 times with sterile purified water successively, and prepared into four test solutions with doses of 1, 0.2, 0.04, and 0.008 μL/dish, and five sample dose groups were formed. In addition, a solvent control group (sterile purified water), a blank control group (spontaneous reverse mutation group) and four positive control groups were set up. The solvents and dosages required for the preparation of positive controls sodium azide, Dexon, 2-aminofluorene and 1,8-dihydroxyanthraquinone are shown in Table 1. Sequentially, 0.1 mL each of the fresh enrichment broth of tester strain and the test solution were added into a top-layer culture medium held in a 45° C. water bath, 0.5 mL of 10% (V:V) S9 mixture was added when activated, and an equal volume of 0.2 mol/L pH7.4 phosphate buffer saline (PBS) was added without activation; after mixing well, the mixture was rapidly poured onto the bottom-layer culture medium, and the plate was rotated to uniformly distribute the top-layer culture medium on the bottom layer. […]
In general terms: The Ames test detects mutagens through reverse mutation in bacteria.

Series [4] relates to Salmonella typhimurium TA100. The experiment in a line: Ames test, strain TA100. The format is cell-based. The note with it: Test 2. The procedure:
as §1

Series [5] relates to Salmonella typhimurium TA98. Kind of series: Ames test, strain TA98. The note with it: Test 2. The format is cell-based. Here is the method:
as §1

Series [6] concerns Salmonella typhimurium TA97a. Kind of series: Ames test, strain TA97a. The format is cell-based. The conditions noted are these: Test 2. The procedure:
as §1

The test system of series [7] is Salmonella typhimurium TA102. The experiment in a line: Ames test, strain TA102. It is filed as cell-based. The conditions noted are these: Test 2. Here is the method: as §1
Setting [8] is: 0.25 g/kg metformin daily by gavage, 30 days.
Setting [9] is: positive control and the three TCM decoction dose groups, P<0.05.
[10] abbreviates: positive control group (0.25 g/kg metformin), baseline.
The mark [11] stands for this setting: positive control group (0.25 g/kg metformin), before treatment.

Structures are written as SMILES. Like-named read-outs stand apart in the source and are kept apart here.

For `O=P1(N(CCCl)CCCl)NCCCO1` (centres unmarked) [CP, cyclophosphamide], in series [1] (female), the “Frequency of micronucleated cells” value is given as 15.64 ± 5.16 ‰, the “Number of micronucleated PCEs” value was determined as 88 n and the PCE/NCE worked out at 1.02 ± 0.18. In addition, in series [1] (male), the “Frequency of micronucleated cells” value was 17.57 ± 4.87 ‰, the “Number of micronucleated PCEs” value is 78 n and the PCE/NCE stood at 1.03 ± 0.16. For the same molecule, in the series on mouse sperm, the Abnormality rate is reported as 6.49 ± 0.74 %, the “Total number of abnormal sperms” value was 357 n, the “Type of abnormal sperms: Amorphous” value is on record as 157 and the “Type of abnormal sperms: Banana-like” value is 8. In the series on mouse sperm, the “Type of abnormal sperms: Folded” value is on record as 6, the “Type of abnormal sperms: Hookless” value came out at 169, the “Type of abnormal sperms: Large” value is given as 7 and the “Type of abnormal sperms: Two-head” value was determined as 3. Besides, the “Type of abnormal sperms: Two-tailed” value with mouse sperm is 7.
As for `CN(C)C(=N)N=C(N)N` [Positive control, metformin], in series [2] (setting [8]), the “Body weight before administration” value is on record as 435.4 ± 25.3 g, the “fasting plasma glucose: Blood glucose after administration” value is given as 6.65 ± 1.39 mmol/L and the “insulin level After administration” value came to 44.13 ± 5.42 uIU/mL. In addition, in series [2] (setting [9]), the “body weight after administration compared with model control group” value was “lower than that in the model control group”, the “fasting plasma glucose after administration compared with after modeling” value is “significantly lower than that after modeling” and the “insulin levels after administration compared with after modeling” value is recorded as “significantly lower than those after modeling”. In series [2] (setting [10]), the “Body weight before modeling” value was 166.3 ± 10.8 g and the “fasting plasma glucose: Blood glucose before modeling” value was found to be 6.02 ± 0.48 mmol/L. In series [2] (setting [11]), the “Body weight after modeling” value is given as 463.5 ± 17.3 g, the “fasting plasma glucose: Blood glucose after modeling” value came out at 20.15 ± 3.23 mmol/L and the “insulin level Before administration” value amounted to 73.45 ± 9.45 uIU/mL. The “number of revertant colonies compared with the solvent control” value in series [3] is “more than twice that of the corresponding solvent control”. Also, the “number of revertant colonies” value in series [4] (TA100, +S9, positive control) is listed as 1171 ± 91. Moreover, in series [4] (TA100, −S9, positive control), the “number of revertant colonies” value is reported as 987 ± 117. In series [5] (TA98, +S9, positive control), the “number of revertant colonies” value is 1049 ± 94. The “number of revertant colonies” value in series [5] (TA98, −S9, positive control) was found to be 1091 ± 78. In addition, the “number of revertant colonies” value in series [6] (+S9, positive control) was determined as 1061 ± 84. Moreover, the “number of revertant colonies” value in series [6] (−S9, positive control) is listed as 1027 ± 98. In series [7] (TA102, +S9, positive control), the “number of revertant colonies” value is reported as 1085 ± 91. Besides, the “number of revertant colonies” value in series [7] (TA102, −S9, positive control) was found to be 973 ± 76.
